Data from ChEMBL document CHEMBL1201862, “PubChem BioAssay data set” (2004).
The source made the active and inactive calls.

Key:
[1] = biological target: T1, Methionyl-tRNA synthetase, putative (Trypanosoma brucei brucei, UniProt Q38C91); format: functional, Trypanosoma brucei brucei strain 927/4 GUTat10.1
T1 sequence (Q38C91 whole entry): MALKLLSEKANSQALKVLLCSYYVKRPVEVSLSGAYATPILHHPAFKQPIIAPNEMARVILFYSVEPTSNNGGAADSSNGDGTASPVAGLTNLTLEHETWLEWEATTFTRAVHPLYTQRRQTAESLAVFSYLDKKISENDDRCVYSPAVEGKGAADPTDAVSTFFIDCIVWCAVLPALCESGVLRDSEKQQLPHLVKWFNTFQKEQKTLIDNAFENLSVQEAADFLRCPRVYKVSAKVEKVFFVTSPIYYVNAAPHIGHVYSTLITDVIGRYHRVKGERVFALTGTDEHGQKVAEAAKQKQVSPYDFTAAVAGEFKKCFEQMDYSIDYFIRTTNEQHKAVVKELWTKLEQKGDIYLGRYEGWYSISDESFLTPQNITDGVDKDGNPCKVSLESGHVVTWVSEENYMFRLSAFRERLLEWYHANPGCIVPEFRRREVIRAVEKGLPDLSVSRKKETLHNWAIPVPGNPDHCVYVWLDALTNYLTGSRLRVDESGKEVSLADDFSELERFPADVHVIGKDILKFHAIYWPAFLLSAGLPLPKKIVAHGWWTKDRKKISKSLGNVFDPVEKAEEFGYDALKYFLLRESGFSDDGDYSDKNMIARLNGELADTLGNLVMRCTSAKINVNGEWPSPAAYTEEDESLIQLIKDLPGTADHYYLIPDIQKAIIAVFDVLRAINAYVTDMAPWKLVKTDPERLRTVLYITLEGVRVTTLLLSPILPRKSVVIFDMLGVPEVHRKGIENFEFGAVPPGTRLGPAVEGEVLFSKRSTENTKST

[2] = biological target: T1, Methionyl-tRNA synthetase, putative; format: functional, Trypanosoma brucei brucei strain 927/4 GUTat10.1; remark: listed apart in the source
[3] = Counterscreen for inhibitors of Trypanosoma brucei methionyl tRNA synthetase (MetRS): Luminescence-based cell-based high throughput dose response assay to identify compounds that are cytotoxic to Jurkat human T lymphocyte cells.; format: functional
[4] = biological target: T2, Apoptotic protease-activating factor 1 (Homo sapiens, UniProt O14727); format: functional
T2 sequence (O14727 whole entry): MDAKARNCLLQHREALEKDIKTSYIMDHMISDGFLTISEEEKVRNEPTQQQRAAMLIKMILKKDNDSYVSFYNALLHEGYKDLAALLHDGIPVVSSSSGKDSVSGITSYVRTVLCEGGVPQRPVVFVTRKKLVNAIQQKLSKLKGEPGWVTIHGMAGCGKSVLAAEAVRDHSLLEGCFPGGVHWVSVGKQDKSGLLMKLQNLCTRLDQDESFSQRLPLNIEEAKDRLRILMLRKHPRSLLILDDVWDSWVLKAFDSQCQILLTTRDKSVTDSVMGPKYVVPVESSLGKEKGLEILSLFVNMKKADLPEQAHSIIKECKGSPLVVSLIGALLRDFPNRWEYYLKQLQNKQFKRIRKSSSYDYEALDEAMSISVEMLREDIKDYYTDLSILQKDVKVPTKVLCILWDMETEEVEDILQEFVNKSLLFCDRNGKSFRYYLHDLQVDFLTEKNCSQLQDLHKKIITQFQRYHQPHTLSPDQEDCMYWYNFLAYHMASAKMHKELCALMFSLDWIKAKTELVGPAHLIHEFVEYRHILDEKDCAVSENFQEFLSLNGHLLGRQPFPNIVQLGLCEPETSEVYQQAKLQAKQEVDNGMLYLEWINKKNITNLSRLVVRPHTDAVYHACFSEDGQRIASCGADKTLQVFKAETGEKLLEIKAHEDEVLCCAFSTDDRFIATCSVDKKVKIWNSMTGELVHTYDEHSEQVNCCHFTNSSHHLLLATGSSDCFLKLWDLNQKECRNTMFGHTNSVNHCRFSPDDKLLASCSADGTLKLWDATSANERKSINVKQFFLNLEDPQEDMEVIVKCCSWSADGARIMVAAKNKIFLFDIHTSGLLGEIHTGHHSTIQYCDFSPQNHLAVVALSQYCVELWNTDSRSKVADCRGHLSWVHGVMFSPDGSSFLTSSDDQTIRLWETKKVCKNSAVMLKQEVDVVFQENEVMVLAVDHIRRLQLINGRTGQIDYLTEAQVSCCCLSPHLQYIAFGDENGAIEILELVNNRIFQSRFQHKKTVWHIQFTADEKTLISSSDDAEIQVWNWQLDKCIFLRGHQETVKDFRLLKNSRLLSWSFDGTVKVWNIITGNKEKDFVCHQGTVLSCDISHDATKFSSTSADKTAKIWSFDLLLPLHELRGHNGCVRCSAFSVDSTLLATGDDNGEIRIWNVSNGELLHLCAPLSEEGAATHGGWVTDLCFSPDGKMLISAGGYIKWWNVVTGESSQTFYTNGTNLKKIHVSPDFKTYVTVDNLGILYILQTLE

[5] = biological target: T3, Adenosylmethionine-8-amino-7-oxononanoate aminotransferase (Mycobacterium tuberculosis, UniProt P9WQ81); assay: Mycobacterium tuberculosis BioA enzyme inhibitor Measured in Biochemical System Using Plate Reader - 2163-02_Inhibitor_Dose_CherryPick_Activity.; format: functional, Mycobacterium tuberculosis UT205
T3 sequence (P9WQ81 whole entry): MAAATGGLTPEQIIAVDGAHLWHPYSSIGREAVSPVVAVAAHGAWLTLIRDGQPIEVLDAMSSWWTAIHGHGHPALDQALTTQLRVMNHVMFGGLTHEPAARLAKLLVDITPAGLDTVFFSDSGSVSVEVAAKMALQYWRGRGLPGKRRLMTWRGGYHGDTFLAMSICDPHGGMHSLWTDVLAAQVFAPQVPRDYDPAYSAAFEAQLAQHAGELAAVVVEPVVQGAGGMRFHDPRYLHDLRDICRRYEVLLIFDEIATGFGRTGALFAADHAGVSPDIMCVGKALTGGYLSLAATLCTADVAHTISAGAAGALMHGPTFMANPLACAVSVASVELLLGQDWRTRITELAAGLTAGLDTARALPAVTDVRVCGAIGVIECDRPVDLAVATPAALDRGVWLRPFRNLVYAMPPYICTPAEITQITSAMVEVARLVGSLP

Cytochrome P450 3A4 = Cytochrome P450 3A4 (Homo sapiens, UniProt P08684);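 further: CYP3A4 tested as one member of a cytochrome P450 panel screen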
Cytochrome P450 3A4, sequence (P08684 whole entry): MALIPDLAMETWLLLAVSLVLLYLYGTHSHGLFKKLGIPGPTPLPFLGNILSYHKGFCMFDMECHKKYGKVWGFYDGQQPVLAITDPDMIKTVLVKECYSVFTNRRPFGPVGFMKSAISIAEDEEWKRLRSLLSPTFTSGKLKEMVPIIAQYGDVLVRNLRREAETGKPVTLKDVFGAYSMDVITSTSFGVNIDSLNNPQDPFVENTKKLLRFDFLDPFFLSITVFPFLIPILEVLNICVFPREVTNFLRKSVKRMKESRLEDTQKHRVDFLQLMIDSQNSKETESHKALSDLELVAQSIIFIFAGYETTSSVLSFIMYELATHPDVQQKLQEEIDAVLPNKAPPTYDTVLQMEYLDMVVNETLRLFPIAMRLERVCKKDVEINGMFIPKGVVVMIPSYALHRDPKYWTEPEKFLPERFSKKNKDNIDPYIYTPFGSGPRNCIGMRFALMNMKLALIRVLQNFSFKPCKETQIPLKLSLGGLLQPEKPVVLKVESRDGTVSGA

Cytochrome P450 2D6 = Cytochrome P450 2D6 (Homo sapiens, UniProt P10635);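 further: CYP2D6 member of a cytochrome P450 panel assay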
Cytochrome P450 2D6, sequence (P10635 whole entry): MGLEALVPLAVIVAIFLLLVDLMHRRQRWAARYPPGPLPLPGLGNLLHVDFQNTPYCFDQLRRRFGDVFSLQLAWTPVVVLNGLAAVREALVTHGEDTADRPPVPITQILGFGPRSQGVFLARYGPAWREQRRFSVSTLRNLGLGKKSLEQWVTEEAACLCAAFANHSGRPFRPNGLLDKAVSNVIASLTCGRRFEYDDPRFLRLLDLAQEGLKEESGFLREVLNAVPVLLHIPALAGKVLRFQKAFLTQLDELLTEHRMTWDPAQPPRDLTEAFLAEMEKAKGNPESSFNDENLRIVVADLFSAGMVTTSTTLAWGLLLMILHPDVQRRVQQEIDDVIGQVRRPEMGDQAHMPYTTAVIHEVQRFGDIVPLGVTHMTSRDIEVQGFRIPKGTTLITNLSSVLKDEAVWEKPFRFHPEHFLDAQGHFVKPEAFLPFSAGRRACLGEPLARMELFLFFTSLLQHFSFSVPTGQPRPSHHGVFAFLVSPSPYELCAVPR

Vero [6] = assay: cells; format: functional, cell-based; conditions: Chlorocebus sabaeus
Vero [7] = assay: cells; format: functional; conditions: Chlorocebus sabaeus
Cytochrome P450 1A2 = biological target: T4, Cytochrome P450 1A2 (Homo sapiens, UniProt P05177);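 further: PubChem cytochrome P450 panel assay, CYP1A2 panel member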
T4 sequence (P05177 whole entry): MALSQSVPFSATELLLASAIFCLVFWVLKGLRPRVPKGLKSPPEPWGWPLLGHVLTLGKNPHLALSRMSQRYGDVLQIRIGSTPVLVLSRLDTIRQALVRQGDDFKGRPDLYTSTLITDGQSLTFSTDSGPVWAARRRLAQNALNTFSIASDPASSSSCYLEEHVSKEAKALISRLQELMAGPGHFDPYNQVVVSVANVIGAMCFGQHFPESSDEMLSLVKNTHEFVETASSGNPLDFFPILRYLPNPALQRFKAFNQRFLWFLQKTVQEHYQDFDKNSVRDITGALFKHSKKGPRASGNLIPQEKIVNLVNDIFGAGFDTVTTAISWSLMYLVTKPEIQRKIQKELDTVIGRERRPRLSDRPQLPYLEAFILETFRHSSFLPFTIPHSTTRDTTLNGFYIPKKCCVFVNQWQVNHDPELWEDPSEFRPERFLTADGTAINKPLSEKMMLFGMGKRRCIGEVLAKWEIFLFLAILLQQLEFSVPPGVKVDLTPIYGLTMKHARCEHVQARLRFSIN

H9c2 = assay: cells; format: functional, cell-based; conditions: Rattus norvegicus, H9c2, Myocardium;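 further: confirmatory concentration-response retest of ultra-high-throughput screening hits for modulation of myocardial damage; cell death induced by hydrogen peroxide oxidative stress; compound pretreatment for 60 min then peroxide exposure for 2 h; potency is for protecting the cells against peroxide damage rather than for killing them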
Streptococcus = assay: Group A Streptococcus viability loss, dose response, counter-screen for streptokinase expression inhibitor project, luminescence, BacTiterGlo (AID 1915); format: functional, organism-based;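 further: potency for reduction of bacterial viability or growth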
Streptokinase A = biological target: T5, Streptokinase A (Streptococcus pyogenes serotype M1, UniProt P10520); assay: S. pyogenes streptokinase expression inhibitors, potency, dose response, plasminogen activation absorbance, OD405 (AID 1914); format: functional, Streptococcus pyogenes M1 GAS;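 further: secreted streptokinase activity via plasminogen activation per viability signal from cell pellet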
T5 sequence (P10520 whole entry): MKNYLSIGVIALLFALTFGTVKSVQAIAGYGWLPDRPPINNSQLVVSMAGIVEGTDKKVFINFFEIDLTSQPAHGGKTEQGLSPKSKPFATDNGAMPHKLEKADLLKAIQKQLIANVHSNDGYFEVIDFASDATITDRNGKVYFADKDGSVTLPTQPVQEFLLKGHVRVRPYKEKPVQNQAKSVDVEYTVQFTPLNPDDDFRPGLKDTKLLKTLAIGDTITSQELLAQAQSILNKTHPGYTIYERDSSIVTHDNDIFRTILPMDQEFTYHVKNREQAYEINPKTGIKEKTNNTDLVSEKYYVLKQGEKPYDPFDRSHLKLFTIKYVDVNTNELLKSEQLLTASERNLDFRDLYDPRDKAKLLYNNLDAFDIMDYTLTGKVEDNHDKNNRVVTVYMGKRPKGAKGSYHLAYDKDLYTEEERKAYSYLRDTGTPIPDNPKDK

Albumin = Albumin (Bos taurus, UniProt P02769); assay: Counterscreen for inhibitors of T-cell receptor (TCR)-CD3 interaction: Fluorescence-based biochemical high throughput dose response assay to identify inhibitors of T-cell receptor (TCR)-CD3 interaction using a TAMRA-labeled BSA probe.; format: functional
Albumin, sequence (P02769 whole entry): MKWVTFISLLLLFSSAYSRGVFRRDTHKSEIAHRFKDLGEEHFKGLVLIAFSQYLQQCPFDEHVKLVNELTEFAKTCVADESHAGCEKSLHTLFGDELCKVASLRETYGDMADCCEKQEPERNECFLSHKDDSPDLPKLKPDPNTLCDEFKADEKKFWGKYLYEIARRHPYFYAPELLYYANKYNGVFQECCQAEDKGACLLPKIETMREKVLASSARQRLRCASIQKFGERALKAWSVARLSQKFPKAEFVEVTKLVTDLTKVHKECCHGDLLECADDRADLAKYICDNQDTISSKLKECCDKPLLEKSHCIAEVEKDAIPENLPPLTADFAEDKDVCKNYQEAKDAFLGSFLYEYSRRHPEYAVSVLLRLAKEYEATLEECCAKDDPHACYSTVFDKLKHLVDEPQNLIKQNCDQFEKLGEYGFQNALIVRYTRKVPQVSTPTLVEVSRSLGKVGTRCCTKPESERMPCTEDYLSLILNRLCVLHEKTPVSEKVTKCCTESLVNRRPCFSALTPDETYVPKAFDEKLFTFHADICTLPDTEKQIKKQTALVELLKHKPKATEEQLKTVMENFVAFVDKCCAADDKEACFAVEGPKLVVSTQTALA

[8] = tested on: Streptococcus sp. 'group A'; assay: growth inhibition of control SK(-) GAS strain, dose response, counter-screen for streptokinase expression inhibitor project, luminescence, kanamycin, BacTiterGlo, confirmation (AID 1900); format: functional, organism-based
[9] = intracellular Trypanosoma cruzi inhibitors in host cells – cell-based, plate reader, cherry-pick samples, set 3, dose response (AID 651818); format: functional;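 further: compounds incubated with infected cells for about four days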
[10] = biological target: Potassium channel subfamily K member 9 (Homo sapiens, UniProt Q9NPC2); assay: TASK3 (KCNK9) channel inhibitors, thallium flux, SAR follow-up, selectivity assay for TASK1 inhibitor project, cell-based, FluxOR thallium flux, concentration-response (AID 652211); format: functional;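 further: potency is for inhibitors of the channel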
Potassium channel subfamily K member 9, sequence (Q9NPC2 whole entry): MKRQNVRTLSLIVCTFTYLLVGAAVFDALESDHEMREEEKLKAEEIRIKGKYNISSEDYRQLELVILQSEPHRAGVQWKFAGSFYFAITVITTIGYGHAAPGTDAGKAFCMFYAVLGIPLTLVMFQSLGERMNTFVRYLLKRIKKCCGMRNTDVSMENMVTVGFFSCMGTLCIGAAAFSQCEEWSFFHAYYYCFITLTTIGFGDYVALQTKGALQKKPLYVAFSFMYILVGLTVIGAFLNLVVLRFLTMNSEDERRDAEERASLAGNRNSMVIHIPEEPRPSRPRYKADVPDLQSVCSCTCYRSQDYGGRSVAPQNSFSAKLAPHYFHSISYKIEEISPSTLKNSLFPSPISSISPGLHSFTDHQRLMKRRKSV

Compound: O=C(COC(=O)CCCOc1ccc(Cl)cc1Cl)NCc1ccccc1
- IC50 [1]: 16.4 µM (inactive)
- IC50 [2]: 11.3 µM (inactive)
- IC50 [3]: 83.3 µM (inactive)

Compound: N#Cc1c(N(CCO)CCO)nc(N)c2c(N)nc3c(c12)CC(=O)N3Cc1cccs1
- IC50 [4]: 20.7 µM (active)

Compound: O=C(Nc1ncc2c(n1)CC(c1cccc(Cl)c1)CC2=O)c1ccco1 (stereo unspecified)
- AC50 [5]: 1.95 µM (active)

Compound: COc1ccc(-c2nc3cnc(N4CCN(C)CC4)nc3n(CCc3ccccc3)c2=O)cc1
- AC50 (Cytochrome P450 3A4): inconclusive
- AC50 (Cytochrome P450 2D6): 25.1 µM (inconclusive)

Compound: O=C(c1cccc(S(=O)(=O)N2CCc3ccccc32)c1)N1CCN(c2ccccn2)CC1
- IC50 (Vero [6]): 6.82 µM (active)
- CC50 (Vero [7]): 18.9 µM (active)

Compound: COc1cccc(NC(=O)CN(C)CC(=O)Nc2ccc(Br)cc2)c1
- IC50 [1]: 13.2 µM (inactive)
- IC50 [2]: 51.2 µM (inactive)
- IC50 [3]: 83.3 µM (inactive)

Compound: COc1cc(C(=O)N2CCN(C(=O)c3ccccc3)CC2)cc(OC)c1OC
- AC50 (Cytochrome P450 3A4): inconclusive
- AC50 (Cytochrome P450 1A2): 2.51 µM (inconclusive)

Compound: Cc1cc(C)c(C)c(S(=O)(=O)N2CCC(C(=O)NNC(=O)c3ccccc3O)CC2)c1C
- IC50 (H9c2): 31.7 µM (inactive)
- EC50 (Streptococcus): > 150 µM (not active)
- EC50 (Streptokinase A): > 150 µM (not active)
- IC50 (Albumin): > 94.1 µM (inactive)
- EC50 [8]: 17 µM (active)

Compound: CCOc1ccc(CCNC(=O)c2cnc(C)cn2)cc1OCC
- AC50 [5]: 2.54 µM (active)

Compound: O=C1NC(=S)NC1=Cc1ccco1
- IC50 (Albumin): > 94.1 µM (inactive)

Compound: CCc1nc2ccc(Br)cc2c(=O)n1-c1ccccc1C(F)(F)F
- AC50 [5]: 0.966 µM (active)

Compound: Cc1ccc(S(=O)(=O)N2CCC(C(=O)NNC(=O)c3ccccc3O)CC2)cc1
- IC50 (Albumin): > 94.1 µM (inactive)

Compound: C[C@H](CO)N1C[C@H](C)[C@H](CN(C)Cc2ccc(Oc3ccccc3)cc2)Oc2c(NC(=O)Nc3cccc4ccccc34)cccc2C1=O
- AC50 [9]: 3.24 µM (active)

Compound: C[C@H]1CN([C@@H](C)CO)C(=O)Cc2cc(NC(=O)Nc3ccc(C(F)(F)F)cc3)ccc2O[C@H]1CN(C)Cc1ccc2c(c1)OCO2
- AC50 [9]: 4.99 µM (active)

Compound: C[C@@H]1CN([C@H](C)CO)C(=O)Cc2cc(NS(=O)(=O)c3cccs3)ccc2O[C@@H]1CN(C)Cc1ccc(C(=O)Nc2ccccc2N)cc1
- AC50 [9]: 4.03 µM (active)

Compound: CS(=O)(=O)N1[C@H](C(=O)NCc2ccncc2)[C@@H](CO)[C@@H]2Cn3c(ccc(C4=CCCCC4)c3=O)[C@@H]21
- AC50 [5]: 6.52 µM (active)

Compound: C[C@@H]1CN([C@H](C)CO)C(=O)Cc2cc(NC(=O)Cc3cn(C)c4ccccc34)ccc2O[C@H]1CN(C)Cc1ccc(C(F)(F)F)cc1
- AC50 [9]: 3.42 µM (active)

Compound: CC(C)Oc1ccccc1C(=O)Nc1cccc(NC(=O)c2ccccc2OC(F)(F)F)c1
- IC50 [10]: 0.07 µM (active)

Compound: COc1ccccc1C(=O)Nc1cccc(NC(=O)c2ccccc2C(C)C)c1
- IC50 [10]: 0.74 µM (active)

Compound: C/C(=N/OCO/N=C(\C)c1ccccc1)c1ccccc1
- IC50 (Vero [6]): > 25 µM (active)
